Assay results taken from paper PMC6631687, “Relevance of In Vitro Metabolism Models to PET Radiotracer Development: Prediction of In Vivo Clearance in Rats from Microsomal Stability Data” (Pharmaceuticals, 2019).
Where two headings read alike, the source gives them in different places.

Assays:
[1] = Microsomal stability assay (substrate depletion) in rat liver microsomes; assay type: in vitro ADME; details: male, Sprague Dawley; for half-life at 8 µM: pH 7.4, 8 µM substrate, 0.5 mg/mL protein, triplicate, read-out: In vitro t1/2 (SD); for CLint scaled at 8 µM: pH 7.4, scaled from in vitro t1/2 with fmic, 60 mg protein/g liver, 40 g liver/kg, read-out: CLint (SD), intrinsic clearance
Protocol: RLM (Sprague Dawley, male, 20 mg/mL protein concentration) were purchased from Thermo Fisher Scientific/Life Technologies (Darmstadt, Germany). Assay conditions (buffer, microsomal protein concentration, solvent) were evaluated and optimized in a preliminary study. RLM (0.5 mg/mL microsomal protein) and substrate (8 µM CBX, MCBX or CPFPX, 1 mM stock solutions in DMSO) were preincubated for 5 min at 37 °C in HEPES buffer (100 mM, pH 7.4) containing MgCl2 (3.3 mM). Reactions were initiated by addition of preheated NADPH (1.3 mM). Final incubation volume was 1 mL. Aliquots (100 µL) were withdrawn at 0, 2, 5, 10, 15 and 20 min and quenched with an equal volume of methanol/acetonitrile (50:50, v/v, cooled to −20 °C). The samples were mixed on a vortex mixer (1 min, 21 °C) and centrifuged (20,000 rcf, 10 min, 21 °C) to sediment precipitated protein. The supernatants (aliquots of 50 µL) were analyzed on a Knauer smartline HPLC-UV/VIS system (Knauer, Berlin, Germany) equipped with a manual sample injector (Rheodyne type 7125), a 500 µL sample loop and a Kromasil 100-5-C18 (4.6 × 250 mm) analytical column (AkzoNobel, Bohus, Sweden). Chromatography was performed using a mobile phase composition of ACN/H2O/HAc 48:52:0.2 (v/v/v), and with a flow rate of 1 mL/min and a detection wavelength of 275 nm. Experiments were conducted in triplicate.
Substrate depletion was calculated from the area ratios of the analyte peak, using the value at t = 0 min as 100%. Depletion data were fitted to the monoexponential decay model (Equation (1)) to derive in vitro t1/2. (1) C(t)=C0e^−ln2/t1/2t where C0 is the substrate concentration at time t = 0.
(§1) Intrinsic clearance was calculated from in vitro t1/2 using the equation [38]:(2) CLint=ln2/in vitro t1/2 (min)×fmic×ml incubation/mg microsomal protein×mg microsomal protein/g liver weight×g liver/kg body weight where scaling factors of 60 mg of microsomal protein per gram of liver and 40 g of liver tissue per kilogram of body weight were applied.

[2] = Prediction of in vivo plasma clearance from microsomal stability data (well-stirred liver model) and prediction accuracy; assay type: in vitro ADME; details: rat; for CLp Predicted (SD), predicted plasma clearance: well-stirred liver model, corrected for microsomal and plasma protein binding; for Fold Error CL (ratio predicted/observed) / Fold Underprediction CL: predicted vs observed CLp
Protocol: as §1
In vivo clearance in plasma was predicted using the well-stirred liver model:(4) CLp=Q×fp×CLint/Q+fp×CLint where fp is the fraction unbound in plasma and Q is hepatic blood flow with a given value of 55 mL/min/kg for rat.
The individual prediction accuracy was assessed by calculation of fold error (ratio predicted/observed). AFE (Equation (5)) and RMSE (Equation (6)) were used as measures for overall bias and precision. Underprediction was also expressed as fold underprediction, which is the inverse of AFE. (5) AFE=10^1/n∑logpredicted/observed (6) RMSE=1/n∑(predicted−observed)^2 with n, number of predictions.

Lipophilicity (log P) = assay type: physicochemical
Protocol: Table 1 Metabolic stability of the xanthine A1AR ligands in rat liver microsomes and predicted plasma clearance (CLp). Experiments were conducted in triplicate. fmic, unbound fraction in microsomes; CLint, intrinsic clearance; SD, standard deviation. | column: Log P

[3] = In vivo pharmacokinetics in rat plasma after i.v. administration; details: for clearance / Vd / half-life: iv, single i.v. dose approx. 0.4 nmol, mean plasma curves, triexponential fit; for clearance: read-out: CLp (plasma clearance, in vivo); for Vd: read-out: Vd (volume of distribution); for half-life: read-out: t1/2,term (terminal half-life); for Parent fraction (authentic radiotracer of total plasma radioactivity): rat plasma, 180 min p.i., radio-TLC
Protocol: Pharmacokinetic experiments on rats (n = 27) were conducted under isoflurane anesthesia (1.5–2% in oxygen) with continuous monitoring of physiological parameters. Polyethylene catheters (PE 50; filled with heparinized saline) were implanted into the femoral artery for arterial blood sampling and the lateral tail vein for radiotracer application. [^18F]CPFPX, [^18F]MCBX or [^18F]CBX (21 ± 2.5 MBq, 0.39 ± 0.20 nmol) was formulated in physiological saline (1 mL total volume) and administered over 1 min using a syringe pump (model 44, Harvard Apparatus, Holliston, MA, USA). Arterial blood samples (ca. 200 μL) were collected at regular time intervals throughout the 180-min experiment. The total blood sampling volume was kept below 10% of the circulating blood volume of the animal. Plasma was separated by centrifugation (3,000 rcf, 3 min, 21 °C), weighed and measured in a γ-counter (ISOMED 2100, MED Nuklear-Medizintechnik Dresden GmbH, Dresden, Germany) to calculate plasma radioactivity concentration. Fractions of unchanged radiotracer (parent fraction) and radiolabeled metabolites in plasma were assessed by radio-thin layer chromatography (TLC) analysis. Aliquots (45 μL) of plasma were mixed with 3 volumes of methanol/acetonitrile (50:50, v/v, 4 °C), vortexed (1 min, 21 °C) and centrifuged (20,000 rcf, 5 min, 21 C) to sediment precipitated protein. Aliquots (5 μL) of the supernatants were spotted on a TLC plate (SIL G-25, 10 × 20 cm, Macherey-Nagel, Düren, Germany). The TLC plate was developed with ethyl acetate/hexane, 75:25 (v/v), dried and subsequently imaged for 50 min with an electronic autoradiography system (InstantImager, Canberra-Packard, Rüsselsheim, Germany).
PK analysis was performed on decay and metabolite-corrected plasma radioactivity data of 8 ([^18F]CBX, [^18F]CPFPX) or 9 ([^18F]MCBX) individual animals. Data of 2 animals could not be used for PK analysis due to paravenous radiotracer injection. Since interindividual variations in plasma kinetics within the test groups were relatively small, individual plasma data were combined to mean data sets for analysis. Assuming a specific density of 1 g/mL for plasma, radioactivity concentration was calculated and plotted against time. For data visualization, plasma radioactivity concentration was normalized to body weight and amount of injected radioactivity, yielding SUV. PK parameters were derived from the radioactivity concentration-time data via nonlinear regression analysis applying a triexponential model:(7) Cp(t)=A1e^−λ1t+A2e^−λ2t+A3e^−λ3t where Cp is the plasma radioactivity concentration, t is time, A1, A2, and A3 represent the y-intercepts of the distribution/elimination phases of the plasma concentration-time curve and λ1, λ2, and λ3 represent the first-order rate constants of the phases.
Plasma clearance, volume of distribution and terminal half-life were calculated from the model parameters A and λ according to the following equations [44]:(8) CLp=D/∫0∞Cp(t)dt=D/∑i=1nAi/λi (9) Vd=Clp/λ3 (10) t1/2,term=ln 2/λ3 where D is the injected radioactivity and λ3 is the terminal rate constant.

Row | Compound | half-life at 8 µM [1] [min] | CLint scaled at 8 µM [1] [mL/min/kg] | CLp Predicted (SD), predicted plasma clearance [2] | logP (Lipophilicity (log P)) | Fold Error CL (ratio predicted/observed) [2] | clearance ([3]; rat) [mL/min/kg] | Vd ([3]; rat) [L/kg] | half-life ([3]; rat) [min] | Parent fraction (authentic radiotracer of total plasma radioactivity) [3] | Plasma level relative to [^18F]CPFPX ([3]; rat, second and third phase of the curve (10-180 min p.i.)) | Fold Underprediction CL [2] | half-life ([3]; 0.39 nmol, rat) [min]
1 | CCCn1c(=O)c2[nH]c(C3CCC3)nc2n(CCCF)c1=O [CBX] | 35.1 | 106 | 2.72 (0.13) mL/min/kg | 2.19 |  |  |  |  |  |  |  | 
2 | CCCn1c(=O)c2nc(C3CCCC3)[nH]c2n(CCCF)c1=O [CPFPX, reference compound] | 14 | 295 | 4.70 (0.07) mL/min/kg | 2.93 | 0.66 |  |  |  |  |  |  | 
3 | CCCn1c(=O)c2[nH]c(C3CCCC3)nc2n(CCC[18F])c1=O [[^18F]CPFPX, 8-cyclopentyl-3-(3-[^18F]fluoropropyl)-1-propylxanthine, reference compound] |  |  |  |  | 0.66 | 7.1 | 0.523 | 51 | approximately 7% |  | 1.5 | ~50

More lines, now with the values ahead:

Row | half-life at 8 µM [1] [min] | CLint scaled at 8 µM [1] [mL/min/kg] | CLp Predicted (SD), predicted plasma clearance [2] | logP (Lipophilicity (log P)) | Fold Error CL (ratio predicted/observed) [2] | clearance ([3]; rat) [mL/min/kg] | Vd ([3]; rat) [L/kg] | half-life ([3]; rat) [min] | Parent fraction (authentic radiotracer of total plasma radioactivity) [3] | Plasma level relative to [^18F]CPFPX ([3]; rat, second and third phase of the curve (10-180 min p.i.)) | Fold Underprediction CL [2] | half-life ([3]; 0.39 nmol, rat) [min] | Compound
4 | 19.8 | 204 | 7.76 (0.22) mL/min/kg | 2.82 |  |  |  |  |  |  |  |  | CCCn1c(=O)c2[nH]c(C3(C)CCC3)nc2n(CCCF)c1=O [MCBX]
5 |  |  |  |  | 0.84 | 3.22 | 0.356 | 76.5 | ~25% | approximately twice as high | 1.2 |  | CCCn1c(=O)c2[nH]c(C3CCC3)nc2n(CCC[18F])c1=O [[^18F]CBX, 8-cyclobutyl-3-(3-[^18F]fluoropropyl)-1-propylxanthine]
6 |  |  |  |  | 0.85 | 9.1 | 0.715 | 54.5 | ~13% |  | 1.2 | ~50 | CCCn1c(=O)c2[nH]c(C3(C)CCC3)nc2n(CCC[18F])c1=O [[^18F]MCBX, 3-(3-[^18F]fluoropropyl)-8-(1-methylcyclobutyl)-1-propylxanthine]
